Measured values taken from patent US10023565B2, “N,N′ substituted piperidinamine compounds, and preparation method and usage thereof” (Institute of Pharmacology and Toxicology Academy of …, priority 2013, dated 2018).

Legend:
[1] = system: tumor cells and normal cells (12 kinds of cells); experiment: Extended test against tumor cell lines, statements on the whole panel; type: cell-based
Method: (§1) The compounds of Examples 36/37/40/47/49 were used to carry out extended test against tumor cell lines, wherein 12 kinds of cells were selected, including liver cancer cells, gastric cancer cells, pancreatic cancer cells, colorectal cancer cells, lung cancer cells and normal cells, which were shown in Table 12:
(§2) A 100 mm culture dish with overgrown adherent cells was digested with 1 ml 0.25% trypsin (GIBCO) at 37° C. for 5 min, and the reaction was terminated with 2 ml culture medium (containing 10% FBS, GIBCO). The cells were scattered and collected, after counting, diluted to 1×10^5 cells/ml, and seeded into a 96-well plate at 50 μl/well, 5000 cells/well, excluding the peripheral circle of wells in which no cell was added, but PBS was added, 54 wells in total, and then incubated at 37° C. for 24 hours for adhering.
(§3) The test sample was diluted to final concentration of 4, 1, 0.25, 0.063, 0.016 μM, culture medium was filled in control well, 3 parellel wells were set for each concentration, 50 μl each well, followed by incubation at 37° C. for 72 hours.
(§4) 3) Test after incubation at 37° C. for 72 hours: 50 μL of ATPlite kitsubstrate solution was added in each well, and vibrated for 3 min, followed by placing aside in darkness for 10 min, and then supernatant 100 μl/well was taken and placed on a luminescence test plate; the luminescence test plate that has been fully incubated was placed in a luminescence test instrument, to read luminescence value.
(§5) Cell survival rate (%)=Experimental group RLU/control group RLU×100%. The experimental data were subjected to data analysis and processing by utilizing GraphPad software.

[2] = system: BT/Lap^R1.0; experiment: Antitumor bioactivity evaluation, breast cancer cells (ATPlite); type: cell-based, human; settings: Homo sapiens
Procedure, shortened: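 Single-concentration screen: 5 μM compound, or 5 μM compound plus 1 μM lapatinib, on adhered cells (5000/well) for 72 h. Viability by ATPlite luminescence relative to solvent control.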

[3] = system: AsPC-1; experiment: Extended test against tumor cell lines (ATPlite); type: cell-based; settings: AsPC-1 (pancreatic cancer), 72 hours
Method: as §1, §2, §3, §4, §5

[4] = system: HT-29; experiment: Extended test against tumor cell lines (ATPlite); type: cell-based; settings: HT-29 (colorectal cancer), 72 hours
Method: as §1, §2, §3, §4, §5

[5] = system: A549; experiment: Extended test against tumor cell lines (ATPlite); type: cell-based; settings: A549 (lung cancer), 72 hours
Method: as §1, §2, §3, §4, §5

[6] = system: H460; experiment: Extended test against tumor cell lines (ATPlite); type: cell-based; settings: H460 (lung cancer), 72 hours
Method: as §1, §2, §3, §4, §5

[7] = system: WI-38 (human embryonic lung fibroblast); experiment: Extended test against tumor cell lines (ATPlite); type: cell-based; settings: WI-38 (normal cells), 72 hours
Method: as §1, §2, §3, §4, §5

[8] = system: MRC5 (lung epithelial fibroblast); experiment: Extended test against tumor cell lines (ATPlite); type: cell-based; settings: MRC5 (normal cells), 72 hours
Method: as §1, §2, §3, §4, §5

[9] = system: COLO205; experiment: Extended test against tumor cell lines (ATPlite); type: cell-based; settings: COLO205 (colorectal cancer), 72 hours
Method: as §1, §2, §3, §4, §5

[10] = system: Huh-7; experiment: Extended test against tumor cell lines (ATPlite); type: cell-based; settings: Huh-7 (liver cancer), 72 hours
Method: as §1, §2, §3, §4, §5

[11] = system: MIA-PaCa-2; experiment: Extended test against tumor cell lines (ATPlite); type: cell-based; settings: MIA-PaCa-2 (pancreatic cancer), 72 hours
Method: as §1, §2, §3, §4, §5

[12] = system: HepG2; experiment: Extended test against tumor cell lines (ATPlite); type: cell-based; settings: HepG2 (liver cancer), 72 hours
Method: as §1, §2, §3, §4, §5

[13] = system: six human breast cancer cell strains; experiment: Antitumor activity evaluation, statements on the whole panel; type: cell-based; settings: compound alone
Description: In antitumor activity evaluation, six human breast cancer cell strains are selected, including BT474, SK-BR3 which are human breast cancer cell strains sensitive to lapatinib, BT/Lap^R1.0, SK/Lap^R1.0 which are human breast cancer cell strains with secondary resistance to lapatinib, MDA-MB-361, MDA-MB-453 which are human breast cancer cell strains with natural resistance tolapatinib.
Antitumor bioactivity evaluation of the compounds of Examples according to the method described below
Cells plating: a 100 mm culture dish with overgrown adherent cells was digested with 1 ml 0.25% trypsin (GIBCO) at 37° C. for 5 min, and the reaction was terminated with 2 ml culture medium (containing 10% FBS, GIBCO). The cells were scattered and collected, after counting, diluted to 1×10^5 cells/ml, and seeded into a 96-well plate at 50 μl/well, 5000 cells/well, excluding the peripheral circle of wells in which no cell was added, but PBS was added, 60 wells in total, and then incubated at 37° C. for 24 hours for adhering.
Addition of the compound and lapatinib: the test sample was diluted to a final concentration of 5 μM, and the culture medium with the corresponding compound solvent concentration was filled in the control well, the compound solvent concentration was kept consistent in each well, 5 parellel wells were set for each concentration, 25 μl each well, 25 μl culture medium (in combined group, 25 μl lapatinib was added till a final concentration of 1 μM) supplemented, followed by incubation at 37° C. for 72 hours.
Test after incubation at 37° C. for 72 hours: 50 μL of ATPlite kit substrate solution was added in each well, and vibrated for 3 min, followed by placing aside in darkness for 10 min, and then supernatant 100 μl/well was taken and placed on aluminescence test plate; the luminescence test plate that has been fully incubated was placed in a luminescence test instrument, to read luminescence value.
1. Cell survival rate (%)=Experimental group RLU/control group RLU×100%. The experimental data were subjected to data analysis and processing by utilizing GraphPad software.

Compound: CSc1nccc(N2CCC(N(C)Cc3ccccc3Cl)CC2)n1 [Example 47, N-methyl-N-(2-chlorobenzyl)-N-[1-(2-methylthiopyrimidin-4-yl)piperidin-4-yl]amine]
- inhibition of tumor cells versus cytotoxicity to normal cells ([1]; 12 kinds of cells, 0.016-4 μM, 72 hours): slightly stronger inhibition to liver cancer than that to other tumor cells, and exhibited cytotoxicity to normal cells lower than inhibition to tumor cells
- effect compared with the compounds of other Examples ([1]; Examples 36/37/40/47/49 compared): effect superior to that of the compounds of other Examples
- IC50 [2]: 1700 nM
- inhibition at 5 µM ([2]; test sample 5 μM, 72 hours, read-out: Inhibitory Rate % BT/Lap^R1.0): 58.1%
- Survival rate ([3]; 0.016 μM): 100.2%
- Survival rate ([3]; 0.063 μM): 94.7%
- Survival rate ([3]; 0.25 μM): 92.8%
- Survival rate ([3]; 1 μM): 85.3%
- Survival rate ([3]; 4 μM): 53.6%
- Survival rate ([4]; 0.016 μM): 102.8%
- Survival rate ([4]; 0.063 μM): 102.1%
- Survival rate ([4]; 0.25 μM): 101.6%
- Survival rate ([4]; 1 μM): 93.1%
- Survival rate ([4]; 4 μM): 48.8%
- Survival rate ([5]; 0.016 μM): 98.1%
- Survival rate ([5]; 0.063 μM): 95.3%
- Survival rate ([5]; 0.25 μM): 93%
- Survival rate ([5]; 1 μM): 88.7%
- Survival rate ([5]; 4 μM): 45.9%
- Survival rate ([6]; 0.016 μM): 99%
- Survival rate ([6]; 0.063 μM): 99.8%
- Survival rate ([6]; 0.25 μM): 99.3%
- Survival rate ([6]; 1 μM): 90.6%
- Survival rate ([6]; 4 μM): 33.8%
- Survival rate ([7]; 0.016 μM): 102.1%
- Survival rate ([7]; 0.063 μM): 99.7%
- Survival rate ([7]; 0.25 μM): 100.4%
- Survival rate ([7]; 1 μM): 95.1%
- Survival rate ([7]; 4 μM): 82.1%
- Survival rate ([8]; 0.016 μM): 97.3%
- Survival rate ([8]; 0.063 μM): 99.5%
- Survival rate ([8]; 0.25 μM): 100.3%
- Survival rate ([8]; 1 μM): 92.6%
- Survival rate ([8]; 4 μM): 74.8%
- Survival rate ([9]; 0.016 μM): 98.2%
- Survival rate ([9]; 0.063 μM): 96.7%
- Survival rate ([9]; 0.25 μM): 97.9%
- Survival rate ([9]; 1 μM): 96.1%
- Survival rate ([9]; 4 μM): 23.3%
- Survival rate ([10]; 0.016 μM): 91.1%
- Survival rate ([10]; 0.063 μM): 88.3%
- Survival rate ([10]; 0.25 μM): 81.4%
- Survival rate ([10]; 1 μM): 65.9%
- Survival rate ([10]; 4 μM): 16.7%
- Survival rate ([11]; 0.016 μM): 98.5%
- Survival rate ([11]; 0.063 μM): 99.3%
- Survival rate ([11]; 0.25 μM): 97.4%
- Survival rate ([11]; 1 μM): 88.5%
- Survival rate ([11]; 4 μM): 24.5%
- Survival rate ([12]; 0.016 μM): 103.1%
- Survival rate ([12]; 0.063 μM): 102.7%
- Survival rate ([12]; 0.25 μM): 96%
- Survival rate ([12]; 1 μM): 71.4%
- Survival rate ([12]; 4 μM): 7.3%
- growth inhibition to the six human breast cancer cell strains [13]: relatively significant growth inhibition
